Drawing on PubChem BioAssay AID1259407 (Chemical Carcinogenesis Research Information System (CCRIS), 2018), this text covers mutagenic call for six compounds.

The source made the active and inactive calls. How the calls were made is not given here.

This data set concerns CCRIS mutagenicity, Ames/micronucleus/aberration tests. As to the kind of experiment: CCRIS mutagenicity studies.
The mark [1] stands for this setting: Test System: AMES SALMONELLA TYPHIMURIUM, Strain/Indicator: TA98, Metabolic Activation: NONE, Method: PREINCUBATION
Where [2] appears, read: Test System: AMES SALMONELLA TYPHIMURIUM, Strain/Indicator: TA98, Metabolic Activation: NONE, Method: STANDARD PLATE.
[3] abbreviates: Test System: AMES SALMONELLA TYPHIMURIUM, Strain/Indicator: TA98, Metabolic Activation: RAT, LIVER, S-9, AROCLOR 1254, Method: PREINCUBATION
Where [4] appears, read: Test System: AMES SALMONELLA TYPHIMURIUM, Strain/Indicator: TA100, Metabolic Activation: NONE, Method: PREINCUBATION
Setting [5] is: Test System: AMES SALMONELLA TYPHIMURIUM, Strain/Indicator: TA100, Metabolic Activation: NONE, Method: STANDARD PLATE.
Setting [6] is: Test System: AMES SALMONELLA TYPHIMURIUM, Strain/Indicator: TA100, Metabolic Activation: RAT, LIVER, S-9, AROCLOR 1254, Method: PREINCUBATION
The mark [7] stands for this setting: Test System: AMES SALMONELLA TYPHIMURIUM, Strain/Indicator: TA98, Metabolic Activation: RAT, LIVER, S-9, AROCLOR 1254, Method: STANDARD PLATE.
[8] abbreviates: Test System: AMES SALMONELLA TYPHIMURIUM, Strain/Indicator: TA100, Metabolic Activation: RAT, LIVER, S-9, AROCLOR 1254, Method: STANDARD PLATE.

For the compound `Cc1ccc(C)cc1`, the mutagenic call runs as follows: (Test System: AMES SALMONELLA TYPHIMURIUM, Strain/Indicator: TA98, Metabolic Activation: HAMSTER, LIVER, S-9, AROCLOR 1254, Method: PREINCUBATION) “inactive; negative”; under setting [1], “inactive; negative”; under setting [2], “inactive; negative”; under setting [3], “inactive; negative”; (Test System: AMES SALMONELLA TYPHIMURIUM, Strain/Indicator: TA98, Metabolic Activation: RAT, LIVER, S-9, AROCLOR, Method: STANDARD PLATE) “inactive; negative”; (Test System: AMES SALMONELLA TYPHIMURIUM, Strain/Indicator: TA98, Metabolic Activation: RAT, LIVER, S-9, KC 500, Method: PREINCUBATION) “inactive; negative”. The mutagenic call runs as follows: (Test System: AMES SALMONELLA TYPHIMURIUM, Strain/Indicator: TA100, Metabolic Activation: HAMSTER, LIVER, S-9, AROCLOR 1254, Method: PREINCUBATION) “inactive; negative”; under setting [4], “inactive; negative”; under setting [5], “inactive; negative”; under setting [6], “inactive; negative”; (Test System: AMES SALMONELLA TYPHIMURIUM, Strain/Indicator: TA100, Metabolic Activation: RAT, LIVER, S-9, AROCLOR, Method: STANDARD PLATE) “inactive; negative”; (Test System: AMES SALMONELLA TYPHIMURIUM, Strain/Indicator: TA100, Metabolic Activation: RAT, LIVER, S-9, KC 500, Method: PREINCUBATION) “inactive; negative”. The mutagenic call reads like this: (Test System: AMES SALMONELLA TYPHIMURIUM, Strain/Indicator: TA1535, Metabolic Activation: HAMSTER, LIVER, S-9, AROCLOR 1254, Method: PREINCUBATION) “inactive; negative”; (Test System: AMES SALMONELLA TYPHIMURIUM, Strain/Indicator: TA1535, Metabolic Activation: NONE, Method: PREINCUBATION) “inactive; negative”; (Test System: AMES SALMONELLA TYPHIMURIUM, Strain/Indicator: TA1535, Metabolic Activation: RAT, LIVER, S-9, AROCLOR 1254, Method: PREINCUBATION) “inactive; negative”; (Test System: AMES SALMONELLA TYPHIMURIUM, Strain/Indicator: TA1535, Metabolic Activation: RAT, LIVER, S-9, KC 500, Method: PREINCUBATION) “inactive; negative”; (Test System: AMES SALMONELLA TYPHIMURIUM, Strain/Indicator: TA1537, Metabolic Activation: HAMSTER, LIVER, S-9, AROCLOR 1254, Method: PREINCUBATION) “inactive; negative”; (Test System: AMES SALMONELLA TYPHIMURIUM, Strain/Indicator: TA1537, Metabolic Activation: NONE, Method: PREINCUBATION) “inactive; negative”. Moreover, the mutagenic call by setting is: (Test System: AMES SALMONELLA TYPHIMURIUM, Strain/Indicator: TA1537, Metabolic Activation: RAT, LIVER, S-9, AROCLOR 1254, Method: PREINCUBATION) “inactive; negative”; (Test System: AMES SALMONELLA TYPHIMURIUM, Strain/Indicator: TA1537, Metabolic Activation: RAT, LIVER, S-9, KC 500, Method: PREINCUBATION) “inactive; negative”; (Test System: AMES SALMONELLA TYPHIMURIUM, Strain/Indicator: TA1538, Metabolic Activation: NONE, Method: PREINCUBATION) “inactive; negative”; (Test System: AMES SALMONELLA TYPHIMURIUM, Strain/Indicator: TA1538, Metabolic Activation: RAT, LIVER, S-9, KC 500, Method: PREINCUBATION) “inactive; negative”; (Test System: AMES SALMONELLA TYPHIMURIUM, Strain/Indicator: UTH8413, Metabolic Activation: NONE, Method: STANDARD PLATE) “inactive; negative”; (Test System: AMES SALMONELLA TYPHIMURIUM, Strain/Indicator: UTH8413, Metabolic Activation: RAT, LIVER, S-9, AROCLOR, Method: STANDARD PLATE) “inactive; negative”. Also, the mutagenic call was “inactive; negative” (Test System: AMES SALMONELLA TYPHIMURIUM, Strain/Indicator: UTH8414, Metabolic Activation: NONE, Method: STANDARD PLATE); “inactive; negative” (Test System: AMES SALMONELLA TYPHIMURIUM, Strain/Indicator: UTH8414, Metabolic Activation: RAT, LIVER, S-9, AROCLOR, Method: STANDARD PLATE); “inactive; negative” (Test System: E. COLI, Strain/Indicator: WP2 UVRA, Metabolic Activation: NONE, Method: PREINCUBATION); “inactive; negative” (Test System: E. COLI, Strain/Indicator: WP2 UVRA, Metabolic Activation: RAT, LIVER, S-9, KC 500, Method: PREINCUBATION).

For `Nc1cc(Cl)cc(Cl)c1`, the mutagenic call is “active; positive (structural changes and ploidy)” (End Point: In vitro chromosomal aberrations, Test System: Chinese hamster lung (CHL/IU) cells, Metabolic Activation: Rat, Liver, S9, Phenobarbital and 5,6-benzoflavone); “inactive; negative” under setting [2]; “inactive; negative” under setting [7]; “inactive; negative” under setting [5]; “inactive; negative” under setting [8]; “inactive; negative” (Test System: UDS RODENT HEPATOCYTES, Strain/Indicator: THY INCORP (NON-S-PHASE), Metabolic Activation: NONE, Method: AUTORADIOGRAPHY).

With `Nc1cc2c3c(ccc2c2ccccc12)[C@H](O)[C@@H](O)C=C3`, the mutagenic call is “inactive; negative” under setting [1]; “inactive; negative” under setting [3]; “active; positive” under setting [4]; “active; positive” under setting [6]; “inactive; negative” (Test System: CHINESE HAMSTER OVARY, Strain/Indicator: CHO-K1-BH4 (HGPRT)/6-THIOGUANINE, Metabolic Activation: NONE, Method: STANDARD PLATE); “active; positive” (Test System: CHINESE HAMSTER OVARY, Strain/Indicator: CHO-K1-BH4 (HGPRT)/6-THIOGUANINE, Metabolic Activation: RAT, LIVER, S-9, AROCLOR 1254, Method: STANDARD PLATE). The mutagenic call (Test System: CHINESE HAMSTER OVARY, Strain/Indicator: CHO-UV5 (HGPRT)/6-THIOGUANINE, Metabolic Activation: NONE, Method: STANDARD PLATE) was “inactive; negative” and the mutagenic call (Test System: CHINESE HAMSTER OVARY, Strain/Indicator: CHO-UV5 (HGPRT)/6-THIOGUANINE, Metabolic Activation: RAT, LIVER, S-9, AROCLOR 1254, Method: STANDARD PLATE) is “active; positive”.

Turning to `CCC(CCC(C)O)COC(=O)c1ccccc1C(=O)O` (stereo unspecified), the mutagenic call reads like this: (Test System: AMES SALMONELLA TYPHIMURIUM, Strain/Indicator: TA97, Metabolic Activation: NONE, Method: STANDARD PLATE) “inactive; negative”; (Test System: AMES SALMONELLA TYPHIMURIUM, Strain/Indicator: TA97, Metabolic Activation: RAT, LIVER, S-9, AROCLOR 1254, Method: STANDARD PLATE) “inactive; negative”; (Test System: AMES SALMONELLA TYPHIMURIUM, Strain/Indicator: TA97, Metabolic Activation: RAT, LIVER, S-9, DI(2-ETHYLHEXYL)PHTHALATE, Method: STANDARD PLATE) “inactive; negative”; under setting [2], “inactive; negative”; under setting [7], “inactive; negative”; (Test System: AMES SALMONELLA TYPHIMURIUM, Strain/Indicator: TA98, Metabolic Activation: RAT, LIVER, S-9, DI(2-ETHYLHEXYL)PHTHALATE, Method: STANDARD PLATE) “inactive; negative”. Also, the mutagenic call reads like this: under setting [5], “inactive; negative”; under setting [8], “inactive; negative”; (Test System: AMES SALMONELLA TYPHIMURIUM, Strain/Indicator: TA100, Metabolic Activation: RAT, LIVER, S-9, DI(2-ETHYLEXYL)PHTHALATE, Method: STANDARD PLATE) “inactive; negative”; (Test System: AMES SALMONELLA TYPHIMURIUM, Strain/Indicator: TA102, Metabolic Activation: NONE, Method: STANDARD PLATE) “inactive; negative”; (Test System: AMES SALMONELLA TYPHIMURIUM, Strain/Indicator: TA102, Metabolic Activation: RAT, LIVER, S-9, AROCLOR 1254, Method: STANDARD PLATE) “inactive; negative”; (Test System: AMES SALMONELLA TYPHIMURIUM, Strain/Indicator: TA102, Metabolic Activation: RAT, LIVER, S-9, DI(2-ETHYLHEXYL)PHTHALATE, Method: STANDARD PLATE) “inactive; negative”.

In the case of `Cc1cccc2c([N+](=O)[O-])cc[n+]([O-])c12`, the mutagenic call (Test System: UDS RODENT PRIMARY CELLS, Strain/Indicator: THY INCORP (NON-S-PHASE), Metabolic Activation: NONE, Method: AUTORADIOGRAPHY) was “active; positive”.

As for `CC(C)c1ccccc1OC(=O)N(C)N=O`, the mutagenic call (Test System: E. COLI WP2, Strain/Indicator: WP2, Metabolic Activation: NONE, Method: STANDARD PLATE) is “active; positive”.
